Reference: ChEMBL document CHEMBL4257449, “New N-(2-phenyl-4-oxo-1,3-thiazolidin-3-yl)-1,2-benzothiazole-3-carboxamides and acetamides as antimicrobial agents” (2017)
Values after ≈ are worked out from the molar mass of the structure shown.

What was measured:
Aspergillus fumigatus [1] = assay: Fungicidal activity against Aspergillus fumigatus incubated for 72 hrs followed by serial sub-cultivation for 72 hrs and measured after 72 hrs by serial dilution method; type: functional
Penicillium ochrochloron [2] = assay: Antifungal activity against Penicillium ochrochloron ATCC 9112 after 72 hrs by serial dilution method; type: functional; conditions: ATCC 9112, 72 h
Enterobacter cloacae [3] = assay: Antibacterial activity against Enterobacter cloacae after 24 hrs by microdilution method; type: functional
Enterobacter cloacae [4] = assay: Bactericidal activity against Enterobacter cloacae incubated for 24 hrs followed by serial sub-cultivation and measured after 24 hrs by microdilution method; type: functional
Salmonella typhimurium [5] = assay: Bactericidal activity against Salmonella typhimurium ATCC 13311 incubated for 24 hrs followed by serial sub-cultivation and measured after 24 hrs by microdilution method; type: functional, Salmonella enterica subsp. enterica serovar Typhimurium
Aspergillus ochraceus [6] = assay: Antifungal activity against Aspergillus ochraceus ATCC 12066 after 72 hrs by serial dilution method; type: functional; conditions: ATCC 12066, 72 h
Penicillium ochrochloron [7] = assay: Fungicidal activity against Penicillium ochrochloron ATCC 9112 incubated for 72 hrs followed by serial sub-cultivation for 72 hrs and measured after 72 hrs by serial dilution method; type: functional
Micrococcus flavus [8] = assay: Bactericidal activity against Micrococcus flavus ATCC 10240 incubated for 24 hrs followed by serial sub-cultivation and measured after 24 hrs by microdilution method; type: functional
Staphylococcus aureus [9] = assay: Antibacterial activity against Staphylococcus aureus ATCC 6538 after 24 hrs by microdilution method; type: functional; conditions: ATCC 6538, 24 h
Aspergillus versicolor [10] = assay: Fungicidal activity against Aspergillus versicolor ATCC 11730 incubated for 72 hrs followed by serial sub-cultivation for 72 hrs and measured after 72 hrs by serial dilution method; type: functional
Staphylococcus aureus [11] = assay: Bactericidal activity against Staphylococcus aureus ATCC 6538 incubated for 24 hrs followed by serial sub-cultivation and measured after 24 hrs by microdilution method; type: functional
Bacillus cereus [12] = assay: Bactericidal activity against Bacillus cereus incubated for 24 hrs followed by serial sub-cultivation and measured after 24 hrs by microdilution method; type: functional
Salmonella typhimurium [13] = assay: Antibacterial activity against Salmonella typhimurium ATCC 13311 after 24 hrs by microdilution method; type: functional, Salmonella enterica subsp. enterica serovar Typhimurium; conditions: Salmonella enterica, ATCC 13311, 24 h
Aspergillus niger [14] = assay: Fungicidal activity against Aspergillus niger ATCC 6275 incubated for 72 hrs followed by serial sub-cultivation for 72 hrs and measured after 72 hrs by serial dilution method; type: functional
Listeria monocytogenes [15] = assay: Bactericidal activity against Listeria monocytogenes NCTC 7973 incubated for 24 hrs followed by serial sub-cultivation and measured after 24 hrs by microdilution method; type: functional
Trichoderma viride [16] = assay: Antifungal activity against Trichoderma viride IAM 5061 after 72 hrs by serial dilution method; type: functional; conditions: IAM 5061, 72 h
Aspergillus niger [17] = assay: Antifungal activity against Aspergillus niger ATCC 6275 after 72 hrs by serial dilution method; type: functional; conditions: ATCC 6275, 72 h
Listeria monocytogenes [18] = assay: Antibacterial activity against Listeria monocytogenes NCTC 7973 after 24 hrs by microdilution method; type: functional; conditions: NCTC 7973, 24 h
Pseudomonas aeruginosa [19] = assay: Bactericidal activity against Pseudomonas aeruginosa ATCC 27853 incubated for 24 hrs followed by serial sub-cultivation and measured after 24 hrs by microdilution method; type: functional
Escherichia coli [20] = assay: Antibacterial activity against Escherichia coli ATCC 35210 after 24 hrs by microdilution method; type: functional; conditions: ATCC 35210, 24 h
Talaromyces funiculosus [21] = assay: Antifungal activity against Penicillium funiculosum ATCC 36839 after 72 hrs by serial dilution method; type: functional; conditions: ATCC 36839, 72 h
Micrococcus flavus [22] = assay: Antibacterial activity against Micrococcus flavus ATCC 10240 after 24 hrs by microdilution method; type: functional; conditions: ATCC 10240, 24 h
Aspergillus ochraceus [23] = assay: Fungicidal activity against Aspergillus ochraceus ATCC 12066 incubated for 72 hrs followed by serial sub-cultivation for 72 hrs and measured after 72 hrs by serial dilution method; type: functional
Pseudomonas aeruginosa [24] = assay: Antibacterial activity against Pseudomonas aeruginosa ATCC 27853 after 24 hrs by microdilution method; type: functional; conditions: ATCC 27853, 24 h
Aspergillus fumigatus [25] = assay: Antifungal activity against Aspergillus fumigatus after 72 hrs by serial dilution method; type: functional
Escherichia coli [26] = assay: Bactericidal activity against Escherichia coli ATCC 35210 incubated for 24 hrs followed by serial sub-cultivation and measured after 24 hrs by microdilution method; type: functional
Trichoderma viride [27] = assay: Fungicidal activity against Trichoderma viride IAM 5061 incubated for 72 hrs followed by serial sub-cultivation for 72 hrs and measured after 72 hrs by serial dilution method; type: functional
Candida albicans [28] = assay: Antifungal activity against Candida albicans after 72 hrs by serial dilution method; type: functional
Aspergillus versicolor [29] = assay: Antifungal activity against Aspergillus versicolor ATCC 11730 after 72 hrs by serial dilution method; type: functional; conditions: ATCC 11730, 72 h
Talaromyces funiculosus [30] = assay: Fungicidal activity against Penicillium funiculosum ATCC 36839 incubated for 72 hrs followed by serial sub-cultivation for 72 hrs and measured after 72 hrs by serial dilution method; type: functional
Bacillus cereus [31] = assay: Antibacterial activity against Bacillus cereus after 24 hrs by microdilution method; type: functional
Candida albicans [32] = assay: Fungicidal activity against Candida albicans incubated for 72 hrs followed by serial sub-cultivation for 72 hrs and measured after 72 hrs by serial dilution method; type: functional

`O=C(N/N=C/c1c(F)cccc1Cl)c1nsc2ccccc12` showed an MFC99.5 (Aspergillus fumigatus [1]) of 30 ×10⁻² umol/ml, an MIC (Penicillium ochrochloron [2]) of 60 µM (≈ 20 µg/mL) and an MIC (Enterobacter cloacae [3]) of 60 µM (≈ 20 µg/mL). For the same compound, the MBC99.5 (Enterobacter cloacae [4]) was 12 ×10⁻² umol/ml, the MBC99.5 (Salmonella typhimurium [5]) was 12 ×10⁻² umol/ml and the MIC (Aspergillus ochraceus [6]) was 60 µM (≈ 20 µg/mL). The MFC99.5 (Penicillium ochrochloron [7]) was 12 ×10⁻² umol/ml, the MBC99.5 (Micrococcus flavus [8]) was 24 ×10⁻² umol/ml and the MIC (Staphylococcus aureus [9]) was 60 µM (≈ 20 µg/mL). The MFC99.5 (Aspergillus versicolor [10]) was 12 ×10⁻² umol/ml, the MBC99.5 (Staphylococcus aureus [11]) was 12 ×10⁻² umol/ml and the MBC99.5 (Bacillus cereus [12]) was 24 ×10⁻² umol/ml. For the same compound, the MIC (Salmonella typhimurium [13]) was 60 µM (≈ 20 µg/mL), the MFC99.5 (Aspergillus niger [14]) was 12 ×10⁻² umol/ml and the MBC99.5 (Listeria monocytogenes [15]) was 48 ×10⁻² umol/ml. It also gave an MIC (Trichoderma viride [16]) of 240 µM (≈ 80.1 µg/mL), an MIC (Aspergillus niger [17]) of 60 µM (≈ 20 µg/mL) and an MIC (Listeria monocytogenes [18]) of 240 µM (≈ 80.1 µg/mL). It also gave an MBC99.5 (Pseudomonas aeruginosa [19]) of 48 ×10⁻² umol/ml, an MIC (Escherichia coli [20]) of 120 µM (≈ 40.1 µg/mL) and an MIC (Talaromyces funiculosus [21]) of 30 µM (≈ 10 µg/mL). For the same compound, the MIC (Micrococcus flavus [22]) was 120 µM (≈ 40.1 µg/mL), the MFC99.5 (Aspergillus ochraceus [23]) was 12 ×10⁻² umol/ml and the MIC (Pseudomonas aeruginosa [24]) was 240 µM (≈ 80.1 µg/mL). It also gave an MIC (Aspergillus fumigatus [25]) of 240 µM (≈ 80.1 µg/mL), an MBC99.5 (Escherichia coli [26]) of 24 ×10⁻² umol/ml and an MFC99.5 (Trichoderma viride [27]) of 48 ×10⁻² umol/ml. For the same compound, the MIC (Candida albicans [28]) was 240 µM (≈ 80.1 µg/mL), the MIC (Aspergillus versicolor [29]) was 60 µM (≈ 20 µg/mL) and the MFC99.5 (Talaromyces funiculosus [30]) was 6 ×10⁻² umol/ml. The MIC (Bacillus cereus [31]) was 120 µM (≈ 40.1 µg/mL) and the MFC99.5 (Candida albicans [32]) was 30 ×10⁻² umol/ml.
`O=C(Cc1nsc2ccccc12)N/N=C/c1c(F)cccc1F` showed an MFC99.5 (Aspergillus fumigatus [1]) of 96.4 ×10⁻² umol/ml, an MIC (Penicillium ochrochloron [2]) of 181 µM (≈ 60 µg/mL) and an MIC (Enterobacter cloacae [3]) of 116 µM (≈ 38.4 µg/mL). For the same compound, the MBC99.5 (Enterobacter cloacae [4]) was 23.2 ×10⁻² umol/ml, the MBC99.5 (Salmonella typhimurium [5]) was 23.2 ×10⁻² umol/ml and the MIC (Aspergillus ochraceus [6]) was 121 µM (≈ 40.1 µg/mL). The MFC99.5 (Penicillium ochrochloron [7]) was 24.1 ×10⁻² umol/ml, the MBC99.5 (Micrococcus flavus [8]) was 23.2 ×10⁻² umol/ml and the MIC (Staphylococcus aureus [9]) was 29 µM (≈ 9.61 µg/mL). It also gave an MFC99.5 (Aspergillus versicolor [10]) of 12.1 ×10⁻² umol/ml, an MBC99.5 (Staphylococcus aureus [11]) of 23.2 ×10⁻² umol/ml and an MBC99.5 (Bacillus cereus [12]) of 23.2 ×10⁻² umol/ml. The MIC (Salmonella typhimurium [13]) was 116 µM (≈ 38.4 µg/mL), the MFC99.5 (Aspergillus niger [14]) was 24.1 ×10⁻² umol/ml and the MBC99.5 (Listeria monocytogenes [15]) was 23.2 ×10⁻² umol/ml. For the same compound, the MIC (Trichoderma viride [16]) was 61 µM (≈ 20.2 µg/mL), the MIC (Aspergillus niger [17]) was 121 µM (≈ 40.1 µg/mL) and the MIC (Listeria monocytogenes [18]) was 116 µM (≈ 38.4 µg/mL). It also gave an MBC99.5 (Pseudomonas aeruginosa [19]) of 23.2 ×10⁻² umol/ml, an MIC (Escherichia coli [20]) of 116 µM (≈ 38.4 µg/mL) and an MIC (Talaromyces funiculosus [21]) of 91 µM (≈ 30.2 µg/mL). For the same compound, the MIC (Micrococcus flavus [22]) was 116 µM (≈ 38.4 µg/mL), the MFC99.5 (Aspergillus ochraceus [23]) was 24.1 ×10⁻² umol/ml and the MIC (Pseudomonas aeruginosa [24]) was 116 µM (≈ 38.4 µg/mL). For the same compound, the MIC (Aspergillus fumigatus [25]) was 482 µM (≈ 160 µg/mL), the MBC99.5 (Escherichia coli [26]) was 23.2 ×10⁻² umol/ml and the MFC99.5 (Trichoderma viride [27]) was 12.1 ×10⁻² umol/ml. The MIC (Candida albicans [28]) was 121 µM (≈ 40.1 µg/mL), the MIC (Aspergillus versicolor [29]) was 91 µM (≈ 30.2 µg/mL) and the MFC99.5 (Talaromyces funiculosus [30]) was 12.1 ×10⁻² umol/ml. It also gave an MIC (Bacillus cereus [31]) of 116 µM (≈ 38.4 µg/mL) and an MFC99.5 (Candida albicans [32]) of 24.1 ×10⁻² umol/ml.
